# Assay results taken from patent publication US11999727B2 (Tango Therapeutics, Inc., priority 2020, dated 2024).
# Read-outs that look alike come from different tables or passages of the source.
# Legend:
# PRMT5 [1] = biological target: T1, PRMT5 (Homo sapiens, UniProt O14744); assay: PRMT5 biochemical IC50 assay with MTA as cofactor; details: PRMT5, MTA as cofactor; read-out: MTA IC50
# T1 construct: purchased Viva (custom protein)
# PRMT5 [2] = biological target: T1, PRMT5; assay: PRMT5 biochemical IC50 assay with no cofactor; details: PRMT5, no cofactor; read-out: No Cofactor/ rel IC50
# Text: Table 1 indicates IC50 values (μM) against PRMT5 for exemplary compounds in the presence of SAM as cofactor, with no cofactor, and with MTA as cofactor, respectively (columns 4-6). […] Ki values can be calculated from the IC50 values as described in the Examples section. As detailed in the Examples section, for the assay performed in the presence of SAM, IC50=Ki×1.5 (Ki=IC50/1.5).
# [3] = system: HAP1 MTAP-intact cell line; assay: SDMA in-cell western assay, HAP1 MTAP-intact; type: cell-based; details: HAP1 MTAP-intact, read-out: MTAP HAP1 intact IC50
# How it was run: (§1)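 Isogenic HAP1 pair: the MTAP-intact line expresses endogenous MTAP, and the deleted line is MTAP-null. Symmetric dimethylarginine was detected by in-cell western and IC50 values derived for each line.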
# [4] = system: HAP1 MTAP-deleted cell line; assay: SDMA in-cell western assay, HAP1 MTAP-deleted; type: cell-based; details: for IC50: Homo sapiens, HAP1, SDMA in-cell western, HAP1 MTAP-deleted, read-out: HAP 1 MTAP deleted IC50; for MTAP intact/deleted ratio: IC50 ratio HAP1 MTAP-intact / HAP1 MTAP-deleted, SDMA in-cell western
# How it was run: as §1
# PRMT5 [5] = biological target: T1, PRMT5; assay: PRMT5 biochemical IC50 assay with SAM as cofactor; details: PRMT5, SAM as cofactor; read-out: SAM IC50
# [6] = system: HAP1 MTAP-deleted cell line; assay: Viability assay, MTAP-deleted cell line; type: cell-based; details: Homo sapiens, HAP1, viability, HAP1 MTAP-deleted cell line; read-out: HAP1 MTAP deleted viability
# Text: Table 1 additionally indicates IC50 values in a viability assay for the MTAP-deleted cell line (column 10), indicating the effect of treatment with compound on cell survival.
# [7] = Homo sapiens, HAP1, SDMA in-cell western
# T1 sequence (O14744 whole entry): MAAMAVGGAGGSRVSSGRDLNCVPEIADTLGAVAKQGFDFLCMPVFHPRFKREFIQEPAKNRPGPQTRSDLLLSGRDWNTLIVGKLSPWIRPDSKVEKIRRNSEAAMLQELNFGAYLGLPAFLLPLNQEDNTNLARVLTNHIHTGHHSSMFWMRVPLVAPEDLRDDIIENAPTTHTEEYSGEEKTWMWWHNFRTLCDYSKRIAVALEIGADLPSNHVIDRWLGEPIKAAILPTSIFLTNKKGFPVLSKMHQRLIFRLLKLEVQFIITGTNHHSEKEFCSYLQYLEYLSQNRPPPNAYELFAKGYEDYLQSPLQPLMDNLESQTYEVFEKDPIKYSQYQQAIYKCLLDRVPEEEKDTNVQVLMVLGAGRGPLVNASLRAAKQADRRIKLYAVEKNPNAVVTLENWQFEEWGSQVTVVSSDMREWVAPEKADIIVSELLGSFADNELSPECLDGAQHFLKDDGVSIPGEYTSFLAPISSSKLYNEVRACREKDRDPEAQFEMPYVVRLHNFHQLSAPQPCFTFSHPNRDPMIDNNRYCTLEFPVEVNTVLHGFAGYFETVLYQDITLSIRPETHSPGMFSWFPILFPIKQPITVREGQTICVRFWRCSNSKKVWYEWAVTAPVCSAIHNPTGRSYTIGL
# T1 sequence (Q9BQA1 whole entry partner): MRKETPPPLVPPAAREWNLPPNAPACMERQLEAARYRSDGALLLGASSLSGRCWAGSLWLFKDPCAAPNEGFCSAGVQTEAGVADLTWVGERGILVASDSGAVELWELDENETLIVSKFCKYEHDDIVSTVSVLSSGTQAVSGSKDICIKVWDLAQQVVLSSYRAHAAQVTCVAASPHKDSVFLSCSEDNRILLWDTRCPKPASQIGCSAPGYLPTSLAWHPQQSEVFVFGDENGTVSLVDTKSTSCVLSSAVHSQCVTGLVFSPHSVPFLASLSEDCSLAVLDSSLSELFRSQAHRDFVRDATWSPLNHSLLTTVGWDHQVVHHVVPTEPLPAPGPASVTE
SMILES,IC50 (PRMT5 [1]) [nM],IC50 (PRMT5 [2]) [nM],"IC50 [3, 7] [nM]",IC50 [4] [nM],IC50 (PRMT5 [5]) [nM],IC50 ([3]; SDMA in-cell western) [nM],MTAP intact/deleted ratio [4],IC50 [6] [nM]
"CCc1cc(NC(=O)C(=O)N2C[C@@H](C)CC[C@@H]2c2ccc3sc([C@H]4CN(C)CCO4)nc3c2)cnc1N [Compound 1275, N-(6-amino-5-ethylpyridin-3-yl)-2-((2R,5S)-5-methyl-2-(2-(4-methylmorpholin-2-yl)benzo[d]thiazol-5-yl)piperidin-1-yl)-2-oxoacetamide]",< 50,< 50,–,< 100,50 to 500,100 to 1000,A (an IC50 ratio greater than or equal to 10 fold),< 1000
"CCc1cc(NC(=O)C(=O)N2C[C@@H](C)CC[C@@H]2c2ccc(N3CCC(CN4CCCC4)CC3)cc2)cnc1N [Compound 1276, N-(6-Amino-5-ethylpyridin-3-yl)-2-[(2R,5S)-5-methyl-2-(4-{4-[(pyrrolidin-1-yl)methyl]piperidin-1-yl}phenyl)piperidin-1-yl]-2-oxoacetamide]",< 50,< 50,100 to 1000,< 100,< 50,–,A (an IC50 ratio greater than or equal to 10 fold),< 1000
"CCc1cc(NC(=O)C(=O)N2C[C@@H](C)CC[C@@H]2c2ccc3sc(C4CCCN4C)nc3c2)cnc1N (stereo partly drawn) [Compound 1282, N-(6-amino-5-ethylpyridin-3-yl)-2-((2R,5S)-5-methyl-2-(2-(1-methylpyrrolidin-2-yl)benzo[d]thiazol-5-yl)piperidin-1-yl)-2-oxoacetamide]",< 50,< 50,100 to 1000,< 100,50 to 500,–,A (an IC50 ratio greater than or equal to 10 fold),< 1000
"CCc1cc(NC(=O)C(=O)N2C[C@@H](C)CC[C@@H]2c2ccc3sc(C4CC5(C4)CN(C)C5)nc3c2)cnc1N [Compound 1283, N-(6-amino-5-ethylpyridin-3-yl)-2-((2R,5S)-5-methyl-2-(2-(2-methyl-2-azaspiro[3.3]heptan-6-yl)benzo[d]thiazol-5-yl)piperidin-1-yl)-2-oxoacetamide]",< 50,< 50,< 100,< 100,< 50,–,A (an IC50 ratio greater than or equal to 10 fold),< 1000
"COc1ncc(NC(=O)C(=O)N2C[C@@H](C)CC[C@@H]2c2ccc3sc(CCN4CCCC4)nc3c2)cc1C(N)=O [Compound 1288, 2-methoxy-5-(2-((2R,53)-5-methyl-2-(2-(2-(pyrrolidin-1-yl)ethyl)benzo[d]thiazol-5-yl)piperidin-1-yl)-2-oxoacetamido)nicotinamide]",< 50,50 to 500,100 to 1000,< 100,50 to 500,–,A (an IC50 ratio greater than or equal to 10 fold),< 1000
"CCc1cc(NC(=O)C(=O)N2C[C@@H](C)CC[C@@H]2c2cccc(OC[C@@H](C)N(C)C)c2)cnc1N [Compound 1290, N-(6-amino-5-ethylpyridin-3-yl)-2-((2R,5S)-2-(3-(2-(dimethylamino)propoxy)phenyl)-5-methylpiperidin-1-yl)-2-oxoacetamide]",< 50,< 50,100 to 1000,< 100,50 to 500,–,A (an IC50 ratio greater than or equal to 10 fold),< 1000
"CCc1cc(NC(=O)C(=O)N2C[C@@H](C)CC[C@@H]2c2ccc(OCCN(C)C)cc2)cnc1N [Compound 1292, N-(6-amino-5-ethylpyridin-3-yl)-2-((2R,5S)-2-(4-(2-(dimethylamino)ethoxy)phenyl)-5-methylpiperidin-1-yl)-2-oxoacetamide]",< 50,< 50,100 to 1000,< 100,50 to 500,–,A (an IC50 ratio greater than or equal to 10 fold),< 1000
"CCc1cc(NC(=O)C(=O)N2C[C@@H](C)CC[C@@H]2c2ccc(N3CCN(C)C[C@H]3C)nc2)cnc1N [Compound 1294, N-(6-amino-5-ethyl-3-pyridyl)-2-[(2R,5S)-2-[6-[(2R)-2,4-dimethylpiperazin-1-yl]-3-pyridyl]-5-methyl-1-piperidyl]-2-oxo-acetamide]",< 50,< 50,100 to 1000,< 100,50 to 500,–,A (an IC50 ratio greater than or equal to 10 fold),< 1000
"Cc1cc(NC(=O)C(=O)N2C[C@@H](C)CC[C@@H]2c2ccc3sc(CCN4CCCC4)nc3c2)cnc1N [Compound 1296, N-(6-amino-5-methylpyridin-3-yl)-2-((2R,5S)-5-methyl-2-(2-(2-(pyrrolidin-1-yl)ethyl)benzo[d]thiazol-5-yl)piperidin-1-yl)-2-oxoacetamide]",< 50,< 50,< 100,< 100,< 50,–,A (an IC50 ratio greater than or equal to 10 fold),< 1000

# More lines, main results first:
IC50 (PRMT5 [1]) [nM],IC50 (PRMT5 [2]) [nM],"IC50 [3, 7] [nM]",IC50 [4] [nM],IC50 (PRMT5 [5]) [nM],IC50 ([3]; SDMA in-cell western) [nM],SMILES,MTAP intact/deleted ratio [4],IC50 [6] [nM]
< 50,< 50,< 100,< 100,< 50,–,"CCc1cc(NC(=O)C(=O)N2C[C@@H](C)CC[C@@H]2c2ccc3sc(CCCN(C)C)nc3c2)cnc1N [Compound 1262, N-(6-amino-5-ethylpyridin-3-yl)-2-((2R,5S)-2-(2-(3-(dimethylamino)propyl)benzo[d]thiazol-5-yl)-5-methylpiperidin-1-yl)-2-oxoacetamide]",A (an IC50 ratio greater than or equal to 10 fold),< 1000
< 50,< 50,100 to 1000,< 100,50 to 500,–,"C[C@H]1CC[C@H](c2ccc3c(c2)CCN(C)C3)N(C(=O)C(=O)Nc2cnc(N)c(C3CC3)c2)C1 [Compound 1264, N-(6-Amino-5-cyclopropyl-3-pyridyl)-2-[(2R,5S)-5-methyl-2-(2-methyl-3,4-dihydro-1H-isoquinolin-6-yl)-1-piperidyl]-2-oxo-acetamide]",A (an IC50 ratio greater than or equal to 10 fold),< 1000
< 50,< 50,< 100,< 100,50 to 500,–,"Cc1cc(NC(=O)C(=O)N2C[C@@H](C)CC[C@@H]2c2ccc3sc(C4COC4)nc3c2)cnc1N [Compound 1266, N-(6-amino-5-methylpyridin-3-yl)-2-((2R,5S)-5-methyl-2-(2-(oxetan-3-yl)benzo[d]thiazol-5-yl)piperidin-1-yl)-2-oxoacetamide]",A (an IC50 ratio greater than or equal to 10 fold),< 1000
< 50,< 50,100 to 1000,< 100,50 to 500,–,"CCc1cc(NC(=O)C(=O)N2C[C@@H](C)CC[C@@H]2c2ccc3sc(N4CCOCC4)nc3c2)cnc1N [Compound 1267, N-(6-amino-5-ethylpyridin-3-yl)-2-((2R,5S)-5-methyl-2-(2-morpholinobenzo[d]thiazol-5-yl)piperidin-1-yl)-2-oxoacetamide]",A (an IC50 ratio greater than or equal to 10 fold),< 1000
< 50,< 50,100 to 1000,< 100,< 50,–,"Cc1cc(NC(=O)C(=O)N2C[C@@H](C)CC[C@@H]2c2ccc3sc(C4CCN(C5COC5)CC4)nc3c2)cnc1N [Compound 1268, N-(6-amino-5-methylpyridin-3-yl)-2-((2R,5S)-5-methyl-2-(2-(1-(oxetan-3-yl)piperidin-4-yl)benzo[d]thiazol-5-yl)piperidin-1-yl)-2-oxoacetamide]",A (an IC50 ratio greater than or equal to 10 fold),< 1000
< 50,< 50,100 to 1000,< 100,50 to 500,–,"CCc1cc(NC(=O)C(=O)N2C[C@@H](C)CC[C@@H]2c2ccn3cc(C4CCN(C)CC4)nc3c2)cnc1N [Compound 1274, N-(6-amino-5-ethylpyridin-3-yl)-2-((2R,5S)-5-methyl-2-(2-(1-methylpiperidin-4-yl)imidazo[1,2-a]pyridin-7-yl)piperidin-1-yl)-2-oxoacetamide]",A (an IC50 ratio greater than or equal to 10 fold),< 1000
